In patent US8217060B2, “Benzimidazole derivatives useful as TRP M8 receptor modulators” (Janssen Pharmaceutica, NV, priority 2009, dated 2012):
Where a name gives a salt, the structure may show the parent alone.

Experiments:
canine TRPM8 = molecular target: T1, canine TRPM8 (Canis lupus familiaris, UniProt Q1A7N1); assay: In Vitro Canine TRPM8 Functional Assay (icilin-induced intracellular Ca2+ fluorescence, FLIPR/FDSS); type: cell-based; details: HEK293 cells stably expressing canine TRPM8; for inhibition at 0.2 µM: 0.2 μM test compound, icilin challenge; for IC50: icilin challenge (~80% maximal response), eight-point dose-response
T1 construct: expressed in transfected cells
Method: The functional activity of representative compounds of the formula (I) of the present invention were measured by measuring changes in intracellular calcium concentration using a Ca^2+-sensitive fluorescent dye. The changes in fluorescent signal were monitored by a fluorescence plate reader, either a FLIPR™ (Molecular Devices) or FDSS (Hamamatsu).
HEK293 cells stably expressing canine TRPM8 were routinely grown as monolayers in Dulbecco's minimum essential medium supplemented with 10% FBS, 2 mM L-glutamine, 100 units/mL penicillin, 100 ug/mL streptomycin and 400 μg/mL G418. Cells were maintained in 5% CO2 at 37° C. At 24 hrs prior to assay, cells were seeded in black wall, clear-base poly-D-lysine coated 384-well plates (BD Biosciences, NJ, USA) at a density of 5,000 cells per well in culture medium and grown overnight in 5% CO2 at 37° C. On assay day, growth media was removed and cells were loaded with Calcium 3 Dye (Molecular Devices) for 35 min at 37° C., under 5% CO2 and then for 25 min at room temperature and atmosphere. Subsequently, cells were tested for agonist-induced increases in intracellular Ca^2+ levels using FLIPR™ or FDSS. Cells were challenged with compounds of the formula (I) (at varying concentrations) and intracellular Ca^2+ was measured for 5 min prior to the addition of icilin to all wells to achieve a final concentration that produces approximately an 80% maximal response.
Basal FI was subtracted prior to normalizing data to percent of maximal response. Curves were generated using the average of quadruplicate wells for each data point, were analyzed using nonlinear regression of either sigmoidal dose response or sigmoidal dose response (variable slope). Finally, the EC50 and IC50 values were calculated with the best-fit dose curve determined by GraphPad Prism

Male Sprague Dawley rats = assay: Inhibition of Icilin-Induced “Wet-Dog” Shakes in Rats; type: in vivo; details: 60 min before icilin 3.0 mg/kg i.p., rat
Method: Male Sprague Dawley rats ([…], Charles River Labs, n=6-9/treatment) were used to evaluate the ability of test compounds to block icilin-induced “wet-dog” shakes (WDS). The test compound was administered in 10% hydroxypropyl-β-cyclodextrin (HP β CD), p.o., 60 minutes before icilin. Icilin was then administered in 10% solutol/H2O, at 3.0 mg/kg, i.p. and spontaneous “wet-dog” shakes were counted over a 10 minute period, 10 minutes following the icilin injection.

T1 sequence (Q1A7N1 1-1104): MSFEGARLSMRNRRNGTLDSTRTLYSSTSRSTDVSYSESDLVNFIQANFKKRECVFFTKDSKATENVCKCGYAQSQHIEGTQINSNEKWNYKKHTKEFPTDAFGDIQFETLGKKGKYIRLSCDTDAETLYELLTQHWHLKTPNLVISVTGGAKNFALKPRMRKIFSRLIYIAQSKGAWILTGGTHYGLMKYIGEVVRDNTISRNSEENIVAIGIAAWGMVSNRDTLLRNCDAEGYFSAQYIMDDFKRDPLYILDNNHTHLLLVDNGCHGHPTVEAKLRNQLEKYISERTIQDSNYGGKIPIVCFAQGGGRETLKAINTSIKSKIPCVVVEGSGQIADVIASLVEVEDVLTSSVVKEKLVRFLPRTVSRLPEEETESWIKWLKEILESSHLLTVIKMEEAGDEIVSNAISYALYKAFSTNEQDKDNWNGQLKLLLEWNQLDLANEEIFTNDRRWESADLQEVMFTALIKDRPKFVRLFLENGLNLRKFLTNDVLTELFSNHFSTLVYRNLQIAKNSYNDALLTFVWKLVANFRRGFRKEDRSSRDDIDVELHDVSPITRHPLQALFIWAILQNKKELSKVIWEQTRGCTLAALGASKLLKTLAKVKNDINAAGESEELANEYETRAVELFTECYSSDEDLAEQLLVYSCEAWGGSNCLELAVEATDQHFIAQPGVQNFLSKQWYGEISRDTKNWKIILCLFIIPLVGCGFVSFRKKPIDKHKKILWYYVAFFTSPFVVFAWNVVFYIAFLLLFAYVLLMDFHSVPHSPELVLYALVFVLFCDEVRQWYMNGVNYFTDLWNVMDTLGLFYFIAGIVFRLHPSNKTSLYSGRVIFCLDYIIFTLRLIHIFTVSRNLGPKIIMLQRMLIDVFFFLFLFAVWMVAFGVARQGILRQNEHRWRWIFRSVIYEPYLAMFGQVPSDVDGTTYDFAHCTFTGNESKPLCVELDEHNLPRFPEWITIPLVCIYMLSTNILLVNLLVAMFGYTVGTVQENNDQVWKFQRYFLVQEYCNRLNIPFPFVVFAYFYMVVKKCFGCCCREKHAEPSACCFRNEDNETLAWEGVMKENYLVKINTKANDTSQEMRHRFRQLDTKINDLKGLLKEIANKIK

| SMILES | inhibition at 0.2 µM (canine TRPM8) [%] | IC50 (canine TRPM8) [nM] | % Inhibition of icilin-induced “wet-dog” shakes (Male Sprague Dawley rats; 30 mg/kg p.o.) [%] | % Inhibition of icilin-induced “wet-dog” shakes (Male Sprague Dawley rats; 10 mg/kg p.o.) [%] |
| --- | --- | --- | --- | --- |
| FC(F)(F)Oc1ccccc1-c1ccc2[nH]c(/C=C/C3CCCCC3)nc2c1 [Compound 1, 2-(2-Cyclohexyl-vinyl)-5-(2-trifluoromethoxy-phenyl)-1H-benzimidazole hydrochloride salt] | 93 | 14 | 48 |  |
| FC1(F)CCC(/C=C/c2nc3cc(-c4ccccc4C(F)(F)F)ccc3[nH]2)CC1 [Compound 30, 2-[2-(4,4-Difluoro-cyclohexyl)-vinyl]-5-(2-trifluoromethyl-phenyl)-1H-benzimidazole hydrochloride salt] | 102 | 3 |  | 98 |
| COc1cccc(F)c1-c1ccc2[nH]c(C=CC3CC=C(F)CC3)nc2c1 (stereo not shown) [Compound 41, 2-[2-(4-Fluoro-cyclohex-3-enyl)-vinyl]-5-(2-fluoro-6-methoxy-phenyl)-1H-benzoimidazole hydrochloride salt] | 100 | 6 |  |  |
| Fc1cccc(C(F)(F)F)c1-c1ccc2[nH]c(C=CC3CCC(F)(F)CC3)nc2c1 [Compound 42, 2-[2-(4,4-Difluoro-cyclohexyl)-vinyl]-5-(2-fluoro-6-trifluoromethyl-phenyl)-1H-benzoimidazole hydrochloride salt] | 101 | 3 |  |  |
| COc1cccc(OC)c1-c1ccc2[nH]c(C=CC3CCC(F)(F)CC3)nc2c1 [Compound 43, 2-[2-(4,4-Difluoro-cyclohexyl)-vinyl]-5-(2,6-dimethoxy-phenyl)-1H-benzoimidazole hydrochloride salt] | 100 | 2 |  |  |
| COc1cccc(F)c1-c1ccc2[nH]c(C=CC3CCC(F)(F)CC3)nc2c1 [Compound 44, 2-[2-(4,4-Difluoro-cyclohexyl)-vinyl]-5-(2-fluoro-6-methoxy-phenyl)-1H-benzoimidazole hydrochloride salt] | 101 | 3 |  |  |
| COc1ccc(F)cc1-c1ccc2[nH]c(C=CC3CCC(F)(F)CC3)nc2c1 [Compound 45, 2-[2-(4,4-Difluoro-cyclohexyl)-vinyl]-5-(5-fluoro-2-methoxy-phenyl)-1H-benzoimidazole hydrochloride salt] | 101 | 7 |  |  |
| FC1=CCC(C=Cc2nc3cc(-c4ccccc4C(F)(F)F)cc(C(F)(F)F)c3[nH]2)CC1 (stereo not shown) [Compound 46, 2-[2-(4-Fluoro-cyclohex-3-enyl)-vinyl]-7-trifluoromethyl-5-(2-trifluoromethyl-phenyl)-1H-benzoimidazole hydrochloride salt] | 99 | 4 |  |  |
| FC1(F)CCC(/C=C/c2nc3cc(-c4ccccc4C(F)(F)F)cc(C(F)(F)F)c3[nH]2)CC1 [Compound 47, 2-[2-(4,4-Difluoro-cyclohexyl)-vinyl]-7-trifluoromethyl-5-(2-trifluoromethyl-phenyl)-1H-benzoimidazole hydrochloride salt] | 99 | 6.3 |  |  |
| Cc1cc(-c2ccccc2OC(F)(F)F)cc2nc(C=CC3CCCCC3)[nH]c12 [Compound 48, 2-(2-Cyclohexyl-vinyl)-7-methyl-5-(2-trifluoromethoxy-phenyl)-1H-benzoimidazole hydrochloride salt] | 99 | 6 |  |  |
| Cc1cc(-c2ccccc2C(F)(F)F)cc2nc(C=CC3CCCCC3)[nH]c12 [Compound 49, 2-(2-Cyclohexyl-vinyl)-7-methyl-5-(2-trifluoromethyl-phenyl)-1H-benzoimidazole hydrochloride salt] | 99 | 3 |  |  |
| FC(F)(F)c1ccccc1-c1ccc2[nH]c(/C=C/C3CCSCC3)nc2c1 [Compound 51, (E)-2-[2-(Tetrahydro-thiopyran-4-yl)-vinyl]-5-(2-trifluoromethyl-phenyl)-1H-benzimidazole] | 95 | 31 |  |  |
| Fc1ccccc1-c1ccc2[nH]c(/C=C/C3CCOCC3)nc2c1 [Compound 52, (E)-5-(2-Fluoro-phenyl)-2-[2-(tetrahydro-pyran-4-yl)-vinyl]-1H-benzimidazole trifluoroacetic acid salt] | 91 | 70 |  |  |
| Cc1cc(-c2ccccc2C(F)(F)F)cc2nc(/C=C/C3CCOCC3)[nH]c12 [Compound 53, (E)-7-Methyl-2-[2-(tetrahydro-pyran-4-yl)-vinyl]-5-(2-trifluoromethyl-phenyl)-1H-benzimidazole hydrochloride] | 102 | 8 |  |  |
| FC(F)(F)c1cc(-c2ccc3[nH]c(/C=C/C4CCOCC4)nc3c2)ccn1 [Compound 54, (E)-2-[2-(Tetrahydro-pyran-4-yl)-vinyl]-5-(2-trifluoromethyl-pyridin-4-yl)-1H-benzimidazole hydrochloride] | 1 |  |  |  |
| FC(F)(F)c1ncccc1-c1ccc2[nH]c(/C=C/C3CCCCC3)nc2c1 [Compound 56, (E)-2-(2-Cyclohexyl-vinyl)-5-(2-trifluoromethyl-pyridin-3-yl)-1H-benzimidazole hydrochloride] | 99 | 11 |  |  |
| Fc1cccc(C(F)(F)F)c1-c1ccc2[nH]c(/C=C/C3CCCCC3)nc2c1 [Compound 57, (E)-2-(2-Cyclohexyl-vinyl)-5-(2-fluoro-6-trifluoromethyl-phenyl)-1H-benzimidazole] | 101 | 8 |  |  |
| FC(F)(F)c1cccnc1-c1ccc2[nH]c(/C=C/C3CCCCC3)nc2c1 [Compound 60, (E)-2-(2-Cyclohexyl-vinyl)-5-(3-trifluoromethyl-pyridin-2-yl)-1H-benzimidazole] | 92 | 45 |  |  |
| Fc1cccc(F)c1-c1ccc2[nH]c(/C=C/C3CCOCC3)nc2c1 [Compound 61, (E)-5-(2,6-Difluoro-phenyl)-2[2-(tetrahydro-pyran-4-yl)-vinyl]-1H-benzoimidazole hydrochloride] | 97 | 32 |  |  |
| FC(F)(F)c1cccnc1-c1ccc2[nH]c(/C=C/C3CCOCC3)nc2c1 [Compound 62, (E)-2-[2-(Tetrahydro-pyran-4-yl)-vinyl]-5-(3-trifluoromethyl-pyridin-2-yl)-1H-benzoimidazole hydrochloride] | 92 | 21 |  |  |
| Cc1cc(-c2ccccc2C(F)(F)F)cc2nc(/C=C/C3CCC(C)(C)CC3)[nH]c12 [Compound 63, (E)-2-[2-(4,4-Dimethyl-cyclohexyl)-vinyl]-7-methyl-5-(2-trifluoromethyl-phenyl)-1H-benzoimidazole hydrochloride] | 97 | 12 |  |  |
| CC1(C)CCC(/C=C/c2nc3cc(-c4ccccc4C(F)(F)F)ccc3[nH]2)CC1 [Compound 64, (E)-2-[2-(4,4-Dimethyl-cyclohexyl)-vinyl]-5-(2-trifluoromethyl-phenyl)-1H-benzoimidazole hydrochloride] | 98 | 23 |  |  |
| CC1(C)CCC(/C=C/c2nc3cc(-c4c(F)cccc4F)ccc3[nH]2)CC1 [Compound 65, (E)-5-(2,6-Difluoro-phenyl)-2-[2-(4,4-dimethyl-cyclohexyl)-vinyl]-1H-benzoimidazole trifluoroacetic acid salt] | 96 | 55 |  |  |
| CC1(/C=C/c2nc3cc(-c4ccccc4C(F)(F)F)ccc3[nH]2)CCOCC1 [Compound 66, (E)-2-[2-(4-Methyl-tetrahydro-pyran-4-yl)-vinyl]-5-(2-trifluoromethyl-phenyl)-1H-benzimidazole] | 101 | 31 |  |  |
| CC1(/C=C/c2nc3cc(-c4c(C(F)(F)F)cccc4C(F)(F)F)ccc3[nH]2)CCOCC1 [Compound 67, (E)-5-(2,6-Bis-trifluoromethyl-phenyl)-2-[2-(4-methyl-tetrahydro-pyran-4-yl)-vinyl]-1H-benzimidazole] | 100 | 13 |  |  |
| C/C(=C\c1nc2cc(-c3ccccc3C(F)(F)F)ccc2[nH]1)C1CCCCC1 [Compound 69, (E)-2-(2-Cyclohexyl-propenyl)-5-(2-trifluoromethyl-phenyl)-1H-benzimidazole] | 102 | 11 |  |  |
| FC(F)(F)c1ccccc1-c1ccc2[nH]c(/C=C/C34CCC(Br)(CC3)CC4)nc2c1 [Compound 70, (E)-2-[2-(4-Bromo-bicyclo[2.2.2]oct-1-yl)-vinyl]-5-(2-trifluoromethyl-phenyl)-1H-benzoimidazole] | 97 | 11 |  |  |
